Results on one compound are retold here after US20230128114A1, “METHODS AND COMPOSITIONS FOR TREATING OR PREVENTING AN INFLAMMATORY CONDITION” (priority 2020, published 2023).

In experiment [1] the test system is collagen-induced arthritis. In words: Collagen-induced arthritis. It counts as in vivo, Lewis rats. Set-up: key to Clinical score Day 24, relative reduction / Pannus score, relative reduction / Total histology score, relative reduction: fractional reduction vs vehicle control, sham-baseline subtracted. The note with it: CBD 1 mg/kg, HCQ 2.5 mg/kg, alone or combined. As for the experimental part: Female Lewis rats were challenged with porcine type-II collagen with Freund's adjuvant on Day 1 (0.2 mg/0.2 mL/rat) by subcutaneous injection at the base of the tail to induce arthritis. A booster injection at 0.1 mg/0.1 mL/rat) was administered on Day 7. On Day 16, rats were allocated into groups of six based on hind paw volume, with animals allocated into groups to provide a similar distribution of hind paw volumes.
Vehicle and active agents (i.e., CBD and hydroxychloroquine) alone or in combination were administered intraperitoneally (IP) once a day starting from Day 17 to Day 30, i.e., for a total of 14 consecutive days.
Disease was assessed by measuring hind paw volume with plethysmometer and using a qualitative severity score system as outlined in Table 32 on Day 1, 7, 10, 14, 16, 18, 20, 22, 24, 26, 28 and 30.
Post-termination on Day 30, blood was collected from all rats and analysed for levels of the inflammatory cytokines IL-1β, IL-6 and TNF-α by ELISA. Both hind paws were harvested, weighed and formalin-fixed for histopathology. Tissue was assessed to evaluate cartilage and bone destruction by pannus formation and mononuclear cell infiltration in synovial tissues according to the scoring matrices set out in Tables 33 and 34. A total histology score, being the sum of the pannus formation and mononuclear cell infiltration score, was also calculated.
For synergy analysis, data were baseline subtracted using sham treated […] (i.e., no collagen injection), before normalising the values relative to vehicle control. Synergy was calculated using the statistical methods described elsewhere herein.

Experiment [2] deals with LPS-induced pulmonary inflammation. In words: LPS-induced pulmonary inflammation: BALF white blood cell count. The format is in vivo, C57BL/B6 mice. Conditions: CBD 10 mg/kg, HCQ 2.5 mg/kg, alone or combined. As for the experimental part: Male C57BL/B6 mice weighing 10-20 g were used. Vehicle and active agents (i.e., CBD and hydroxychloroquine) alone or in combination were administered intraperitoneally (IP) at 1 hour before LPS (˜80 mg/kg) was administered intratracheally. 24 hours after LPS injection, mice were anaesthetized with pentoparbital and 0.5 mL of PBS was administered twice through a tracheal cannula after which approximately 0.6 mL of broncheoalveolar lavage fluid (BALF) was obtained. The BALF was assayed for IL-1β, TNF-α, MCP-1(MCAF) and CXCL-1 by Luminex. ANOVA followed by Dunnett's test was applied for comparison between vehicle and treatment groups. p<0.05 was considered significant.
BALF collected from mice were also analysed for white blood cell (WBC) count using an automatic haematology analyser. Cell counts were normalised using sham treated mice, and analysed relative to the highest values across the groups (Table 27).

Experiment [3] has the same test system. In words: LPS-induced pulmonary inflammation: BALF cytokines, synergy analysis. The note with it: CBD 1 mg/kg, HCQ 25 mg/kg, alone or combined; observed. The format is in vivo, C57BL/B6 mice.
Experiment [4] deals with human peripheral blood mononuclear cells (PBMCs) stimulated with bacterial lipopolysaccharide (LPS). In words: Cytokine release from LPS-stimulated human PBMCs (checkerboard, Luminex), Bliss synergy. The format is cell-based. Conditions: PBMC. As for the experimental part:
The anti-inflammatory activity the combination of CBD and hydroxychloroquine was assessed by determining cytokine release from human peripheral blood mononuclear cells (PBMCs) stimulated with bacterial lipopolysaccharide (LPS) using a Luminex based assay. A 96-well microtitre plate-based checkerboard assay with seven concentrations (including the no drug control) of CBD and hydroxychloroquine were assessed in combination was used to determine the drug-drug interaction. Briefly, frozen PMBCs from two independent donors were thawed, diluted in culture medium, seeded into 96-well microtitre plates and incubated at 37° C., 5% CO2 for 1 hour prior to the addition of test compounds. After the addition of the test compounds the cells were returned to the incubator for 1 hour, after which LPS was added to the wells. Plates were incubated at 37° C., 5% CO2 for 24 hours. After 24 hours, cell culture supernatants were removed and analysed for cytokine levels using Luminex methodology according to manufacturers' instructions. All values had the vehicle background subtracted prior to further analysis. Three plates were set up in parallel using the PBMCs from the same donor. Inhibition of cytokine release was determined relative to the no treatment control (i.e., that was stimulated with LPS) and averaged across the three replicates. A cytotoxicity assay using AlmarBlue with the identical plate set up was performed in parallel.
Drug synergy was determined using the Bliss Independence method where the predicted effect of the drug combination is calculated using the equation: […]
Synergy values for each combination of drug concentrations were calculated using the Excess Over Bliss method (the difference between the observed and predicted inhibition) described by, e.g., Liu et al. (2018, Statistics in Biopharmaceutical Research, 10: 112-122, where a value greater than 0 is indicative of synergy and the higher the value the stronger the synergy.

Read-outs that look alike come from different tables or passages of the source.

With `C=C(C)[C@@H]1CCC(C)=C[C@H]1c1c(O)cc(CCCCC)cc1O` [CBD, cannabidiol], the “Clinical score Day 24, relative reduction” value in experiment [1] (observed) is listed as 0.21. In addition, the “Pannus score, relative reduction” value in experiment [1] (observed) worked out at 0.07. For the same compound, the “Paw volume Day 24, relative reduction” value in experiment [1] (observed) amounted to 0.04. The “Total histology score, relative reduction” value in experiment [1] (observed) was 0.11. Moreover, the “Relative reduction in serum cytokine levels: IL-1β” value in experiment [1] (serum) was determined as 0.31. Moreover, in experiment [1] (serum), the “Relative reduction in serum cytokine levels: IL-6” value is 0.50. For the same compound, in experiment [2], the “Relative reduction in white blood cell counts: Neutrophil” value was 0.25. Besides, the “Relative reduction in white blood cell counts: WBC” value in experiment [2] is given as 0.27. Also, in experiment [3], the “IL-6, relative inhibition of cytokine release (BALF)” value is 0.15. The inhibition at 5 µg/mL in experiment [4] (Donor 1, CBD 5.00 μg/mL alone, read-out: FIE (fractional inhibitory effect), IL-1α release) stood at 40%; in experiment [4] (Donor 1, CBD 5.00 μg/mL alone, read-out: FIE (fractional inhibitory effect), IL-1β release), 38%; in experiment [4] (Donor 1, CBD 5.00 μg/mL alone, read-out: FIE (fractional inhibitory effect), IL-6 release), 8%; in experiment [4] (Donor 1, CBD 5.00 μg/mL alone, read-out: FIE (fractional inhibitory effect), MIP-1α release) it was 12%; in experiment [4] (Donor 1, CBD 5.00 μg/mL alone, read-out: FIE (fractional inhibitory effect), TNF-α release), 5%; in experiment [4] (Donor 2, CBD 5.00 μg/mL alone, read-out: FIE (fractional inhibitory effect), IL-1α release) it was 28%. Besides, the inhibition at 5 µg/mL in experiment [4] (Donor 2, CBD 5.00 μg/mL alone, read-out: FIE (fractional inhibitory effect), IL-1β release) came to 13%; in experiment [4] (Donor 2, CBD 5.00 μg/mL alone, read-out: FIE (fractional inhibitory effect), IL-6 release) it was 9%; in experiment [4] (Donor 2, CBD 5.00 μg/mL alone, read-out: FIE (fractional inhibitory effect), MIP-1α release), 0%; in experiment [4] (Donor 2, CBD 5.00 μg/mL alone, read-out: FIE (fractional inhibitory effect), TNF-α release), 7%.
